In patent publication US20040071783A1, “Methods and apparatus for particle formation” (priority 1998, published 2004):

Legend:
[1] = Particle size analysis using the Aerosizer/Aerodisperser system; assay type: physicochemical; details: particle size distribution
Experimental: Particle size analysis of the product was carried out using the Aerosizer/Aerodisperser system (API, USA).

[2] = Crystallinity by XRPD; assay type: physicochemical; details: XRPD pattern
[3] = SEM, in comparison

Structure (SMILES)	SIZE, 5% UNDER [1]	SIZE, 10% UNDER [1]	SIZE, 15% UNDER [1]	SIZE, 20% UNDER [1]	SIZE, 25% UNDER [1]	SIZE, 30% UNDER [1]	SIZE, 35% UNDER [1]	SIZE, 40% UNDER [1]	SIZE, 45% UNDER [1]	SIZE, 50% UNDER [1]	SIZE, 55% UNDER [1]	SIZE, 60% UNDER [1]	SIZE, 65% UNDER [1]	SIZE, 70% UNDER [1]	SIZE, 75% UNDER [1]	SIZE, 80% UNDER [1]	SIZE, 85% UNDER [1]	SIZE, 90% UNDER [1]	SIZE, 95% UNDER [1]	crystallinity [2]	also measured
CC(C)Cc1ccc(C(C)C(=O)O)cc1 (centres unmarked) [Example 1a, ibuprofen]	9.241 micron	11.68 micron	13.57 micron	15.21 micron	16.74 micron	18.21 micron	19.62 micron	20.99 micron	22.30 micron	23.58 micron	24.87 micron	26.16 micron	27.48 micron	28.83 micron	30.25 micron	31.76 micron	33.44 micron	35.44 micron	38.65 micron		
CC(C)Cc1ccc(C(C)C(=O)O)cc1 (centres unmarked) [Example 1b, ibuprofen]	5.920 micron	7.411 micron	8.631 micron	9.720 micron	10.75 micron	11.72 micron	12.66 micron	13.56 micron	14.43 micron	15.30 micron	16.18 micron	17.07 micron	17.99 micron	18.94 micron	19.95 micron	21.05 micron	22.25 micron	23.67 micron	25.84 micron		
O=C(O)c1ccccc1O [Example 3b, salicylic acid]																				crystalline in form	
CC(C(=O)O)c1cccc(C(=O)c2ccccc2)c1 (centres unmarked) [Example 4, ketoprofen]																				confirmed its crystallinity	
O=C(O)c1cccnc1 [Example 5b, nicotinic acid]																					particle size and morphology [3]: comparable particle size and morphology to that of the product of Example 5a

The next lines start with results.

SIZE, 5% UNDER [1]	SIZE, 10% UNDER [1]	SIZE, 15% UNDER [1]	SIZE, 20% UNDER [1]	SIZE, 25% UNDER [1]	SIZE, 30% UNDER [1]	SIZE, 35% UNDER [1]	SIZE, 40% UNDER [1]	SIZE, 45% UNDER [1]	SIZE, 50% UNDER [1]	SIZE, 55% UNDER [1]	SIZE, 60% UNDER [1]	SIZE, 65% UNDER [1]	SIZE, 70% UNDER [1]	SIZE, 75% UNDER [1]	SIZE, 80% UNDER [1]	SIZE, 85% UNDER [1]	SIZE, 90% UNDER [1]	SIZE, 95% UNDER [1]	crystallinity [2]	Structure (SMILES)	also measured
3.762 micron	4.462 micron	5.018 micron	5.518 micron	5.999 micron	6.479 micron	6.966 micron	7.471 micron	8.004 micron	8.572 micron	9.186 micron	9.849 micron	10.55 micron	11.28 micron	12.06 micron	12.92 micron	13.88 micron	14.96 micron	16.35 micron		CC(C)Cc1ccc(C(C)C(=O)O)cc1 (centres unmarked) [Example 1c, ibuprofen]	
5.815 micron	7.327 micron	8.537 micron	9.612 micron	10.62 micron	11.57 micron	12.49 micron	13.38 micron	14.26 micron	15.17 micron	16.10 micron	17.06 micron	18.06 micron	19.10 micron	20.20 micron	21.41 micron	22.79 micron	24.42 micron	26.78 micron		CC(C)Cc1ccc(C(C)C(=O)O)cc1 (centres unmarked) [Example 2, ibuprofen]	
																			crystalline	O=C(O)c1ccccc1O [Example 3a, salicylic acid]	
